Laboratory results published in patent publication US8329717B2, “Pyrimidine derivatives and their use for controlling undesired plant growth” (Bayer Cropscience AG, priority 2008, dated 2012).

Key:
Abutilon theophrasti [1] = assay: Pre-emergence herbicidal effect; type: in vivo; conditions: Dosage 320 g/ha, visual scoring after 3 weeks vs untreated controls, 100% = plants have died
In short: (§1)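 Herbicidal effect is a visual percentage of damage relative to untreated controls, taken after 3 weeks in the greenhouse. Treatment went onto the covering soil directly after sowing, as emulsion or suspension at 600 to 800 l/ha water with 0.2% wetting agent, dosed in g/ha.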

Alopecurus myosuroides [2] = assay: Pre-emergence herbicidal effect; type: in vivo; conditions: Dosage 320 g/ha, visual scoring after 3 weeks vs untreated controls, 100% = plants have died
In short: as §1

Amaranthus retroflexus [3] = assay: Pre-emergence herbicidal effect; type: in vivo; conditions: Dosage 320 g/ha, visual scoring after 3 weeks vs untreated controls, 100% = plants have died
In short: as §1

Avena fatua [4] = assay: Pre-emergence herbicidal effect; type: in vivo; conditions: Dosage 320 g/ha, visual scoring after 3 weeks vs untreated controls, 100% = plants have died
In short: as §1

Cyperus esculentus = assay: Pre-emergence herbicidal effect; type: in vivo; conditions: Dosage 320 g/ha, visual scoring after 3 weeks vs untreated controls, 100% = plants have died
In short: as §1

Echinochloa crus-galli [5] = assay: Pre-emergence herbicidal effect; type: in vivo; conditions: Dosage 320 g/ha, visual scoring after 3 weeks vs untreated controls, 100% = plants have died
In short: as §1

Lolium multiflorum [6] = assay: Pre-emergence herbicidal effect; type: in vivo; conditions: Dosage 320 g/ha, visual scoring after 3 weeks vs untreated controls, 100% = plants have died
In short: as §1

Matricaria inodora [7] = assay: Pre-emergence herbicidal effect; type: in vivo; conditions: Dosage 320 g/ha, visual scoring after 3 weeks vs untreated controls, 100% = plants have died
In short: as §1

Setaria viridis [8] = assay: Pre-emergence herbicidal effect; type: in vivo; conditions: Dosage 320 g/ha, visual scoring after 3 weeks vs untreated controls, 100% = plants have died
In short: as §1

Stellaria media [9] = assay: Pre-emergence herbicidal effect; type: in vivo; conditions: Dosage 320 g/ha, visual scoring after 3 weeks vs untreated controls, 100% = plants have died
In short: as §1

Veronica persica [10] = assay: Pre-emergence herbicidal effect; type: in vivo; conditions: Dosage 320 g/ha, visual scoring after 3 weeks vs untreated controls, 100% = plants have died
In short: as §1

PHBPU = assay: Post-emergence herbicidal effect; type: in vivo; conditions: Dosage 320 g/ha, one-leaf stage, visual scoring after ca. 3 weeks vs untreated controls, 100% = plants have died
In short: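 Effect is rated visually as percent versus untreated plants (0% = like controls, 100% = plants died) about 3 weeks post-treatment. Plants at the one-leaf stage, 2 to 3 weeks from sowing in sandy loam, received spray of wettable powder or emulsion concentrate in 600 to 800 l/ha water plus 0.2% wetting agent, dosed in g/ha.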

Abutilon theophrasti [11] = assay: Post-emergence herbicidal effect; type: in vivo; conditions: Dosage 320 g/ha, one-leaf stage, visual scoring after ca. 3 weeks vs untreated controls, 100% = plants have died
In short: (§2)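 Percent effect rated visually about three weeks after spraying, where 0% equals untreated control growth and 100% equals plant death. Spraying was done at the one-leaf stage on greenhouse plants in sandy loam, using WP or EC formulations dosed in g/ha.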

Alopecurus myosuroides [12] = assay: Post-emergence herbicidal effect; type: in vivo; conditions: Dosage 320 g/ha, one-leaf stage, visual scoring after ca. 3 weeks vs untreated controls, 100% = plants have died
In short: as §2

Amaranthus retroflexus [13] = assay: Post-emergence herbicidal effect; type: in vivo; conditions: Dosage 320 g/ha, one-leaf stage, visual scoring after ca. 3 weeks vs untreated controls, 100% = plants have died
In short: as §2

Avena fatua [14] = assay: Post-emergence herbicidal effect; type: in vivo; conditions: Dosage 320 g/ha, one-leaf stage, visual scoring after ca. 3 weeks vs untreated controls, 100% = plants have died
In short: as §2

Echinochloa crus-galli [15] = assay: Post-emergence herbicidal effect; type: in vivo; conditions: Dosage 320 g/ha, one-leaf stage, visual scoring after ca. 3 weeks vs untreated controls, 100% = plants have died
In short: as §2

Lolium multiflorum [16] = assay: Post-emergence herbicidal effect; type: in vivo; conditions: Dosage 320 g/ha, one-leaf stage, visual scoring after ca. 3 weeks vs untreated controls, 100% = plants have died
In short: as §2

Matricaria inodora [17] = assay: Post-emergence herbicidal effect; type: in vivo; conditions: Dosage 320 g/ha, one-leaf stage, visual scoring after ca. 3 weeks vs untreated controls, 100% = plants have died
In short: as §2

Polygonum convolvulus [18] = assay: Post-emergence herbicidal effect; type: in vivo; conditions: Dosage 320 g/ha, one-leaf stage, visual scoring after ca. 3 weeks vs untreated controls, 100% = plants have died
In short: as §2

Setaria viridis [19] = assay: Post-emergence herbicidal effect; type: in vivo; conditions: Dosage 320 g/ha, one-leaf stage, visual scoring after ca. 3 weeks vs untreated controls, 100% = plants have died
In short: as §2

Stellaria media [20] = assay: Post-emergence herbicidal effect; type: in vivo; conditions: Dosage 320 g/ha, one-leaf stage, visual scoring after ca. 3 weeks vs untreated controls, 100% = plants have died
In short: as §2

Veronica persica [21] = assay: Post-emergence herbicidal effect; type: in vivo; conditions: Dosage 320 g/ha, one-leaf stage, visual scoring after ca. 3 weeks vs untreated controls, 100% = plants have died
In short: as §2

Viola tricolor [22] = assay: Post-emergence herbicidal effect; type: in vivo; conditions: Dosage 320 g/ha, one-leaf stage, visual scoring after ca. 3 weeks vs untreated controls, 100% = plants have died
In short: as §2

[23] = logp (HCOOH), chemicophysical data; conditions: for chromatographic logP: HCOOH (formic acid)
Polygonum convolvulus [24] = assay: Pre-emergence herbicidal effect; type: in vivo; conditions: Dosage 320 g/ha, visual scoring after 3 weeks vs untreated controls, 100% = plants have died
In short: as §1

Viola tricolor [25] = assay: Pre-emergence herbicidal effect; type: in vivo; conditions: Dosage 320 g/ha, visual scoring after 3 weeks vs untreated controls, 100% = plants have died
In short: as §1

With `Cc1ccc2c(c1)[C@H](Nc1nc(C)c(C#N)c(N)n1)[C@@H](C)C2` [Example 1.17] the “Pre-emergence herbicidal effect ABUTH” value (Abutilon theophrasti [1]) was 100%, the “Pre-emergence herbicidal effect ALOMY” value (Alopecurus myosuroides [2]) was 100% and the “Pre-emergence herbicidal effect AMARE” value (Amaranthus retroflexus [3]) was 100%. For the same compound, the “Pre-emergence herbicidal effect AVEFA” value (Avena fatua [4]) was 90%, the “Pre-emergence herbicidal effect CYPES” value (Cyperus esculentus) was 90% and the “Pre-emergence herbicidal effect ECHCG” value (Echinochloa crus-galli [5]) was 100%. For the same compound, the “Pre-emergence herbicidal effect LOLMU” value (Lolium multiflorum [6]) was 100%, the “Pre-emergence herbicidal effect MATIN” value (Matricaria inodora [7]) was 100% and the “Pre-emergence herbicidal effect SETVI” value (Setaria viridis [8]) was 100%. The “Pre-emergence herbicidal effect STEME” value (Stellaria media [9]) was 100%, the “Pre-emergence herbicidal effect VERPE” value (Veronica persica [10]) was 100% and the “Post-emergence herbicidal effect PHBPU” value (PHBPU) was 90%. For the same compound, the “Post-emergence herbicidal effect ABUTH” value (Abutilon theophrasti [11]) was 87%, the “Post-emergence herbicidal effect ALOMY” value (Alopecurus myosuroides [12]) was 90% and the “Post-emergence herbicidal effect AMARE” value (Amaranthus retroflexus [13]) was 97%. For the same compound, the “Post-emergence herbicidal effect AVEFA” value (Avena fatua [14]) was 80%, the “Post-emergence herbicidal effect ECHCG” value (Echinochloa crus-galli [15]) was 93% and the “Post-emergence herbicidal effect LOLMU” value (Lolium multiflorum [16]) was 93%. The “Post-emergence herbicidal effect MATIN” value (Matricaria inodora [17]) was 85%, the “Post-emergence herbicidal effect POLCO” value (Polygonum convolvulus [18]) was 80% and the “Post-emergence herbicidal effect SETVI” value (Setaria viridis [19]) was 90%. For the same compound, the “Post-emergence herbicidal effect STEME” value (Stellaria media [20]) was 97%, the “Post-emergence herbicidal effect VERPE” value (Veronica persica [21]) was 87% and the “Post-emergence herbicidal effect VIOTR” value (Viola tricolor [22]) was 90%. For the same compound, the “logp (HCOOH)” value [23] was “solid, m.p.: 166.4° C.; logp (HCOOH): 2.40; 1H-NMR (CDCl3, 400 MHZ, δ in ppm): 1.25”.

With `Cc1ccc2c(c1)[C@H](Nc1ncc(C#N)c(N)n1)[C@@H](C)C2` [Example 1.35] the “Pre-emergence herbicidal effect ABUTH” value (Abutilon theophrasti [1]) was 100%, the “Pre-emergence herbicidal effect ALOMY” value (Alopecurus myosuroides [2]) was 100% and the “Pre-emergence herbicidal effect AMARE” value (Amaranthus retroflexus [3]) was 100%. The “Pre-emergence herbicidal effect AVEFA” value (Avena fatua [4]) was 100%, the “Pre-emergence herbicidal effect CYPES” value (Cyperus esculentus) was 100% and the “Pre-emergence herbicidal effect ECHCG” value (Echinochloa crus-galli [5]) was 100%. For the same compound, the “Pre-emergence herbicidal effect LOLMU” value (Lolium multiflorum [6]) was 100%, the “Pre-emergence herbicidal effect MATIN” value (Matricaria inodora [7]) was 100% and the “Pre-emergence herbicidal effect POLCO” value (Polygonum convolvulus [24]) was 100%. For the same compound, the “Pre-emergence herbicidal effect SETVI” value (Setaria viridis [8]) was 100%, the “Pre-emergence herbicidal effect STEME” value (Stellaria media [9]) was 100% and the “Pre-emergence herbicidal effect VERPE” value (Veronica persica [10]) was 100%. The “Pre-emergence herbicidal effect VIOTR” value (Viola tricolor [25]) was 100%, the “Post-emergence herbicidal effect PHBPU” value (PHBPU) was 90% and the “Post-emergence herbicidal effect ABUTH” value (Abutilon theophrasti [11]) was 95%. For the same compound, the “Post-emergence herbicidal effect ALOMY” value (Alopecurus myosuroides [12]) was 100%, the “Post-emergence herbicidal effect AMARE” value (Amaranthus retroflexus [13]) was 93% and the “Post-emergence herbicidal effect AVEFA” value (Avena fatua [14]) was 95%. For the same compound, the “Post-emergence herbicidal effect ECHCG” value (Echinochloa crus-galli [15]) was 100%, the “Post-emergence herbicidal effect LOLMU” value (Lolium multiflorum [16]) was 90% and the “Post-emergence herbicidal effect MATIN” value (Matricaria inodora [17]) was 85%. The “Post-emergence herbicidal effect POLCO” value (Polygonum convolvulus [18]) was 90%, the “Post-emergence herbicidal effect SETVI” value (Setaria viridis [19]) was 95% and the “Post-emergence herbicidal effect STEME” value (Stellaria media [20]) was 95%. For the same compound, the “Post-emergence herbicidal effect VERPE” value (Veronica persica [21]) was 95%, the “Post-emergence herbicidal effect VIOTR” value (Viola tricolor [22]) was 90% and the “logp (HCOOH)” value [23] was “wax-like; logp (HCOOH): 2.35; 1H-NMR (CDCl3, 400 MHZ, δ in ppm): 1.25 (d, 3H, CH3);”.

In the case of `Cc1ccc2c(c1)[C@H](Nc1nc(N)c(C#N)c(-c3ccccc3F)n1)[C@@H](C)C2` [Example 1.104, 4-Amino-2-{[(1R,2S)-2,6-dimethyl-2,3-dihydro-1H-inden-1-yl]amino}-6-(2-fluorophenyl)pyrimidine-5-carbonitrile], the melting point is reported as 67 to 68 °C and the chromatographic logP [23] is reported as 3.65.

In the case of `Cc1ccc2c(c1)[C@H](Nc1ncc(Cl)c(N)n1)[C@@H](C)C2` [Example 1.105], the “Pre-emergence herbicidal effect ABUTH” value (Abutilon theophrasti [1]) is reported as 100%, the “Pre-emergence herbicidal effect ALOMY” value (Alopecurus myosuroides [2]) is reported as 100% and the “Pre-emergence herbicidal effect AMARE” value (Amaranthus retroflexus [3]) is reported as 100%. For the same compound, the “Pre-emergence herbicidal effect AVEFA” value (Avena fatua [4]) was 80%, the “Pre-emergence herbicidal effect CYPES” value (Cyperus esculentus) was 100% and the “Pre-emergence herbicidal effect ECHCG” value (Echinochloa crus-galli [5]) was 100%. For the same compound, the “Pre-emergence herbicidal effect LOLMU” value (Lolium multiflorum [6]) was 100%, the “Pre-emergence herbicidal effect MATIN” value (Matricaria inodora [7]) was 100% and the “Pre-emergence herbicidal effect POLCO” value (Polygonum convolvulus [24]) was 100%. The “Pre-emergence herbicidal effect SETVI” value (Setaria viridis [8]) was 100%, the “Pre-emergence herbicidal effect STEME” value (Stellaria media [9]) was 100% and the “Pre-emergence herbicidal effect VERPE” value (Veronica persica [10]) was 100%. The “Pre-emergence herbicidal effect VIOTR” value (Viola tricolor [25]) was 100%, the “Post-emergence herbicidal effect PHBPU” value (PHBPU) was 90% and the “Post-emergence herbicidal effect ABUTH” value (Abutilon theophrasti [11]) was 90%. The “Post-emergence herbicidal effect ALOMY” value (Alopecurus myosuroides [12]) was 80%, the “Post-emergence herbicidal effect AMARE” value (Amaranthus retroflexus [13]) was 90% and the “Post-emergence herbicidal effect AVEFA” value (Avena fatua [14]) was 90%. For the same compound, the “Post-emergence herbicidal effect ECHCG” value (Echinochloa crus-galli [15]) was 100%, the “Post-emergence herbicidal effect LOLMU” value (Lolium multiflorum [16]) was 90% and the “Post-emergence herbicidal effect MATIN” value (Matricaria inodora [17]) was 90%. For the same compound, the “Post-emergence herbicidal effect POLCO” value (Polygonum convolvulus [18]) was 80%, the “Post-emergence herbicidal effect SETVI” value (Setaria viridis [19]) was 90% and the “Post-emergence herbicidal effect STEME” value (Stellaria media [20]) was 90%. For the same compound, the “Post-emergence herbicidal effect VIOTR” value (Viola tricolor [22]) was 80% and the “logp (HCOOH)” value [23] was “wax-like; logp (HCOOH): 1.27; 1H-NMR (CDCl3, 400 MHZ, δ in ppm): 1.30 (d, 3H, CH3);”.

`Nc1nc(N[C@@H]2CCCc3ccccc32)ncc1C(F)(F)F` [Example 1.108, N2-[(1R)-1,2,3,4-Tetrahydronaphthalen-1-yl]-5-(trifluoromethyl)pyrimidine-2,4-diamine] gave a melting point of 130.8 °C and a chromatographic logP [23] of 1.64.

Work on `C#Cc1cnc(N[C@H]2c3cc(C)ccc3C[C@@H]2C)nc1N` [Example 1.119, N2-[(1R,2S)-2,6-Dimethyl-2,3-dihydro-1H-inden-1-yl]-5-ethynylpyrimidine-2,4-diamine] yielded a melting point of 99 °C and a chromatographic logP [23] of 1.43.
